Assay results reported in article PMC6009895, “Screening assay for inhibitors of a recombinant Streptococcus pneumoniae UDP-glucose pyrophosphorylase” (Journal of Enzyme Inhibition and Medicinal Chemistry, 2017).

Target: T1, His6GalUSpn (UDP-glucose pyrophosphorylase, UDPG:PP, GalU) (Streptococcus pneumoniae, UniProt O86882)
T1 construct: complete galU gene amplified from plasmid pMMG2 into pET28a (NheI/BamHI; pETgalU), His6 tag before the protein, tag cut not mentioned; E. coli BL21(DE3), IMAC
T1 sequence (O86882 entry or part of it): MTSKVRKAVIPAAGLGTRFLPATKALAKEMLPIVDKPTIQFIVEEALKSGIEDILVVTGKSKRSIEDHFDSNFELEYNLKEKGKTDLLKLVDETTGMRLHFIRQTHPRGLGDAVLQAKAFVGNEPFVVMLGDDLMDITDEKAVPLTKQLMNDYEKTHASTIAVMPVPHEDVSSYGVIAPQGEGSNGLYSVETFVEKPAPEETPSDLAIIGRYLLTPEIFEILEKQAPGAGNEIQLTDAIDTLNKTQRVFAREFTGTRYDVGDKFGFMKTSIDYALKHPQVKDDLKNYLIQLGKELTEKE
Test: malachite green Pi assay coupled to inorganic pyrophosphatase
Assay type: biochemical
Settings: 30 min preincubation at 37 °C with 7.5 mM compound; 7.5 mM UTP, 7.5 mM Glc-1P, 5 mM MgCl2, MOPS pH 8.0, 37 °C

SMILES	% inhibition at 7.5 mM
Nc1nc(NC2CC2)c2ncn([C@H]3C=C[C@@H](CO)C3)c2n1 [abacavir]	inhibit S. pneumoniae UDP-glucose pyrophosphorylase, including compounds containing a purine base in their structure
Cc1cn([C@H]2C=C[C@@H](CO)O2)c(=O)[nH]c1=O [stavudine]	nucleoside analogs: abacavir, decitabine stavudine and zidovudine
Cc1cn([C@H]2C[C@H](N=[N+]=[N-])[C@@H](CO)O2)c(=O)[nH]c1=O [zidovudine]	nucleoside analogs: abacavir, decitabine stavudine and zidovudine
